Measured values taken from US12129259B1, “Pyrazino[1′,2′:1,5]pyrazolo[4,3-b][1,6]naphthyridines compounds as CK2 inhibitors” (KING FAISAL UNIVERSITY, priority 2023, dated 2024).

Tests used:
PC3 (prostate) = experiment: In vitro cytotoxic activity MTT assay, PC3; assay type: cell-based; details: Homo sapiens; cells exposed for 96 hours; 50% inhibition of cell proliferation; read-out: Cytotoxicity activity IC50, PC3 (prostate)
Method: (§1) Compounds 1-16 were screened for their in vitro cytotoxic activity utilizing a 3-(4,5-dimethyl-thiazol-2-yl)-2,5-diphenyltetrazolium bromide (MTT) assay against selected cancer human cell lines consisting of PC3 (prostate), HCT116 (colon), A375 (melanoma), H1299 (lung), MIAPaCa-2 (pancreas), HL60 (leukemia), MCF7 (breast), MDA-MB-231 (breast) (T. Mosmann, J. Immunol. Meth., 1983, 65, 55-63). The cells were cultured at 37° C. in RMPI1640 medium supplemented with 10% fetal bovine serum, 50 IU/mL penicillin, and 50 μg/mL streptomycin in a 5% CO2 incubator. All cells were sub-cultured 3 times/week by trypsinisation. Viable cells were seeded and allowed to adhere for 12 h before a test drug was added in 96-well plates at an initial density of 1.0×10^5 cells/mL. Tumor cell lines were separately exposed to various concentrations of the tested compounds followed by incubation at a temperature of 37° C. during 96 hours inside a medium of fresh RMPI 1640. Cells were subsequently incubated at 37° C. using MTT at 0.5 mg/mL during 4 hours. After removal of supernatant, formazan crystals were dissolved in isopropanol and the optical density was measured at 570 nm. CX-4945 was used as a positive control.

HCT116 (colon) = experiment: In vitro cytotoxic activity MTT assay, HCT116; assay type: cell-based; details: Homo sapiens, HCT-116; cells exposed for 96 hours; 50% inhibition of cell proliferation; read-out: Cytotoxicity activity IC50, HCT116 (colon)
Method: as §1

A375 (melanoma) = experiment: In vitro cytotoxic activity MTT assay, A375; assay type: cell-based; details: Homo sapiens, A-375; cells exposed for 96 hours; 50% inhibition of cell proliferation; read-out: Cytotoxicity activity IC50, A375 (melanoma)
Method: as §1

H1299 (lung) = experiment: In vitro cytotoxic activity MTT assay, H1299; assay type: cell-based; details: Homo sapiens, NCI-H1299; cells exposed for 96 hours; 50% inhibition of cell proliferation; read-out: Cytotoxicity activity IC50, H1299 (lung)
Method: as §1

MIAPaCa-2 (pancreas) = experiment: In vitro cytotoxic activity MTT assay, MIAPaCa-2; assay type: cell-based; details: Homo sapiens, MIA PaCa-2; cells exposed for 96 hours; 50% inhibition of cell proliferation; read-out: Cytotoxicity activity IC50, MIAPaCa-2 (pancreas)
Method: as §1

HL60 (leukemia) = experiment: In vitro cytotoxic activity MTT assay, HL60; assay type: cell-based; details: Homo sapiens, HL-60; cells exposed for 96 hours; 50% inhibition of cell proliferation; read-out: Cytotoxicity activity IC50, HL60 (leukemia)
Method: as §1

MCF7 (breast) = experiment: In vitro cytotoxic activity MTT assay, MCF7; assay type: cell-based; details: Homo sapiens, cells exposed for 96 hours, 50% inhibition of cell proliferation, read-out: Cytotoxicity activity IC50, MCF7 (breast)
Method: as §1

MDA-MB-231 (breast) = experiment: In vitro cytotoxic activity MTT assay, MDA-MB-231; assay type: cell-based; details: Homo sapiens, cells exposed for 96 hours, 50% inhibition of cell proliferation, read-out: Cytotoxicity activity IC50, MDA-MB-231 (breast)
Method: as §1

recombinant human CK2 = target: T1, recombinant human CK2 (Homo sapiens, UniProt P68400); experiment: CK2 Kinase Assay (33P-ATP, substrate peptide RRRDDDSDDD); assay type: biochemical; details: final ATP concentration 15 μM; 10 min at 30° C.; eight concentrations; read-out: protein kinase CK2 IC50
T1 construct: purchased Millipore
T1 sequence (P68400 whole entry): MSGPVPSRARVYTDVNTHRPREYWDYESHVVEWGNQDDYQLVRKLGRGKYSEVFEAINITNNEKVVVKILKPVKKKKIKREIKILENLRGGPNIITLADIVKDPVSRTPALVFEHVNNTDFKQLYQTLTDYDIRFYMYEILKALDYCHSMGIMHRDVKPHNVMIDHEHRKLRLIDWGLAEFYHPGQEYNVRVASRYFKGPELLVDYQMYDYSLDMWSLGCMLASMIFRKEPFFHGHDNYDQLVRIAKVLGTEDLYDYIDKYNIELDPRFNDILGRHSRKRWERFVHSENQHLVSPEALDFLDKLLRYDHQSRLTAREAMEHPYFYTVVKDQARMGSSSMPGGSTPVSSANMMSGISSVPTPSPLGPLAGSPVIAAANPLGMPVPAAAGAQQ
T1 sequence (P67870 whole entry partner): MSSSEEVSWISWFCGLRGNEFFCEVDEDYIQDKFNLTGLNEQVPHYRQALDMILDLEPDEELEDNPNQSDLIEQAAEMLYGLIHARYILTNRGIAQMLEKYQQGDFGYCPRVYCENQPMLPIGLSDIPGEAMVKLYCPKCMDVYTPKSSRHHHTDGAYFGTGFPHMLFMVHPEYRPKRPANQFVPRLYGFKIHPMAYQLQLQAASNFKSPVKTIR
Method: CK2 Kinase Assay was conducted using the protocol as described in Pierre F. et al; J. Med. Chem. 2011, 54, 635-654. The tested compounds in aqueous solution were added at a volume of 10 μL to a reaction mixture comprising 10 μL of assay dilution buffer (ADB; 20 mM MOPS, pH 7.2, 25 mM β-glycerol phosphate, 5 mM EGTA, 1 mM sodium orthovanadate, and 1 mM dithiothreitol), 10 μL of substrate peptide (RRRDDDSDDD, dissolved in ADB at a concentration of 1 mM), 10 μL of recombinant human CK2 (RRββ-holoenzyme, 25 ng dissolved in ADB; Millipore). Reactions were initiated by the addition of 10 μL of ATP solution (90%75 mMMgCl2, 75 µM ATP (final ATP concentration: 15 μM) dissolved in ADB; 10% [γ-33P] ATP (stock 1 mCi/100 μL; 3000 Ci/mmol (Perkin-Elmer) and maintained for 10 min at 30° C. The reactions were quenched with 100 μL of 0.75% phosphoric acid and then transferred to and filtered through a phosphor cellulose filter plate (Millipore). After washing each well five times with 0.75% phosphoric acid, the plate was dried under vacuum for 5 min and, following the addition of 15 μL of scintillation fluid to each well, the residual radioactivity was measured using a Wallac luminescence counter. The IC50 values were derived from eight concentrations of test inhibitors.

In the case of Clc1cccc(Nc2c3cnccc3nc3c2nn2ccncc32)c1 [Compound (1), N-(3-chlorophenyl)pyrazino[1′,2′:1,5]pyrazolo[4,3-b][1,6]naphthyridin-7-amine], the IC50 (PC3 (prostate)) is reported as 1400 nM, the IC50 (HCT116 (colon)) is reported as 1700 nM and the IC50 (A375 (melanoma)) is reported as 3600 nM. It also gave an IC50 (H1299 (lung)) of 2500 nM, an IC50 (MIAPaCa-2 (pancreas)) of 1100 nM and an IC50 (HL60 (leukemia)) of 2900 nM. The IC50 (MCF7 (breast)) was 6100 nM, the IC50 (MDA-MB-231 (breast)) was 5300 nM and the IC50 (recombinant human CK2) was 100000 nM.
